Our source for the Kd values is article PMC10990149 (Proceedings of the National Academy of Sciences of the …, 2024).

The target of this assay is T1, DvhD (DVU1020), cytoplasmic fragment (PAS and HD-GYP domains) (Nitratidesulfovibrio vulgaris, UniProt Q72DA9).
T1 sequence (Q72DA9 374-701): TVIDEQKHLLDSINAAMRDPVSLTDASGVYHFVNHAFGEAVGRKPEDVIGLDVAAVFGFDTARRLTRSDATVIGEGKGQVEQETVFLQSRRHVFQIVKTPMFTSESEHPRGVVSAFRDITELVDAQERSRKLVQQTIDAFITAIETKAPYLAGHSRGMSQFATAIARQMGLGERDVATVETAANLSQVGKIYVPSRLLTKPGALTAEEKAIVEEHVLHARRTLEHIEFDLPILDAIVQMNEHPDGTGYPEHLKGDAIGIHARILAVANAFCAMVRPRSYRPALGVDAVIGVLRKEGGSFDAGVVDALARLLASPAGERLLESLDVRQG
In words: isothermal titration calorimetry. It counts as binding.

Compound `Nc1nc2c(ncn2[C@@H]2O[C@@H]3CO[P@](=O)(O)O[C@H]4[C@@H](O)[C@H](n5cnc6c(=O)[nH]c(N)nc65)O[C@@H]4CO[P@](=O)(O)O[C@H]3[C@H]2O)c(=O)[nH]1` [c-di-GMP] returned a dissociation constant (Kd) of 322 ± 81 nM.
